Data as given in ChEMBL document CHEMBL4152237, “Identification of novel β-lactams and pyrrolidinone derivatives as selective Histamine-3 receptor (H3R) modulators as possible anti-obesity agents” (Eur J Med Chem, 2018).
pEC50: −log10 of the molar value. Active and inactive are the calls of the source. Unless noted, no cut-off for these calls is given here.

What was measured:
Histamine H3 receptor [1] = target: T1, Histamine H3 receptor (Homo sapiens, UniProt Q9Y5N1); assay: (§1) Agonist activity at human H3R expressed in HEK293 cells harboring glosensor-22F cAMP plasmid DNA assessed as inhibition of forskolin-stimulated cAMP accumulation preincubated with cells followed by forskolin addition measured after 10 mins by luminescence assay; assay type: functional, cell-based; conditions: for pEC50: read-out: EC50; for EC50: read-out: pEC50 (converted)
T1 sequence (Q9Y5N1 whole entry): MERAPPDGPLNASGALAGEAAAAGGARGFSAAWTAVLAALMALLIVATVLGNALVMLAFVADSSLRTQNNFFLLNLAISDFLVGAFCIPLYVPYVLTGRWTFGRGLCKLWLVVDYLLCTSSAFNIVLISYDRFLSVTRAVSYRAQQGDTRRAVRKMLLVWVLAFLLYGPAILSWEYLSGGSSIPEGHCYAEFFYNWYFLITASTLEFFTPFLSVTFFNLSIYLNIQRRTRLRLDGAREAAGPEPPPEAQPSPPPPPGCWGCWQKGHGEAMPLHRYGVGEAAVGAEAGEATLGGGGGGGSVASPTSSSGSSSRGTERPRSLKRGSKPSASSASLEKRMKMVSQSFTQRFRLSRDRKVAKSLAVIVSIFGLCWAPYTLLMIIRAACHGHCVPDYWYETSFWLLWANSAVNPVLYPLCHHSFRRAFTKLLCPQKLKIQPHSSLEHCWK

Histamine H3 receptor [2] = target: T1, Histamine H3 receptor; assay: as §1, with “accumulation at 1 uM” for “accumulation”, “mins in presence of H3R antagonist GSK334429” for “mins”; assay type: functional, cell-based
[3] = target: T2, 5-hydroxytryptamine receptor 2C (Homo sapiens) (UniProt P28335); assay: Agonist activity at human 5-HT2C expressed in HEK293 cells harboring luc2P/NFAT-RE plasmid at 10 uM after 6 to 8 hrs by luciferase reporter gene assay; assay type: functional, cell-based
T2 sequence (whole entry): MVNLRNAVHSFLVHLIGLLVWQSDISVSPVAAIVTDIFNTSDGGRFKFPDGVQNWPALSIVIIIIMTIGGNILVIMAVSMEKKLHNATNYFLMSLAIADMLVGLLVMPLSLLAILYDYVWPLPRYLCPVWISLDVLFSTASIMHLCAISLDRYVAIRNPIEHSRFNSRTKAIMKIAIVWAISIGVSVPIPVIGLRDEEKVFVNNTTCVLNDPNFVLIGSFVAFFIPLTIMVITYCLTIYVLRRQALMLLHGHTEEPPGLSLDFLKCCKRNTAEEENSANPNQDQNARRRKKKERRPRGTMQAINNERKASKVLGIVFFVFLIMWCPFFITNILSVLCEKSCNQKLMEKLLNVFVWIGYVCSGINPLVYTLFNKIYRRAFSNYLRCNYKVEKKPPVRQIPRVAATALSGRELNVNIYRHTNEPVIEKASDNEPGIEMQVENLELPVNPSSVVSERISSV

[4] = target: Histamine H1 receptor (Homo sapiens) (UniProt P35367); assay: Agonist activity at H1R (unknown origin) expressed in HEK293 cells harboring luc2P/NFAT-RE plasmid at 10 uM after 6 to 8 hrs by luciferase reporter gene assay; assay type: functional, cell-based
Sequence of Histamine H1 receptor (Homo sapiens) (P35367 whole entry): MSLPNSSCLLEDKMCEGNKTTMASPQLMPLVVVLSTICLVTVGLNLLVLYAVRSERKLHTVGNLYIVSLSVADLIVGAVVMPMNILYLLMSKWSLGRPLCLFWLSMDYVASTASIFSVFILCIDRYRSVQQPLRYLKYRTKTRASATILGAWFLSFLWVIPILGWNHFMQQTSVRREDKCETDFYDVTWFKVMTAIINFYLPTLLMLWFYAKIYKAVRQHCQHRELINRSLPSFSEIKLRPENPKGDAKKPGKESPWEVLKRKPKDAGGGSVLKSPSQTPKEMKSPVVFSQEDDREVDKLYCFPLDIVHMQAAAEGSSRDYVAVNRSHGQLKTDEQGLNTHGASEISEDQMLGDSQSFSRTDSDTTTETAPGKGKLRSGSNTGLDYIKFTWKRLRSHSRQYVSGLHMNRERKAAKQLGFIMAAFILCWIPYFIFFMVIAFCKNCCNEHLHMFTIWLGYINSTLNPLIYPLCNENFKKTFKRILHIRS

[5] = target: Histamine H2 receptor (Homo sapiens) (UniProt P25021); assay: Agonist activity at H2R (unknown origin) expressed in HEK293 cells harboring glosensor-22F cAMP plasmid DNA assessed as inhibition of forskolin-stimulated cAMP accumulation at 10 uM preincubated with cells followed by forskolin addition measured after 10 mins by luminescence assay; assay type: functional, cell-based
Sequence of Histamine H2 receptor (Homo sapiens) (P25021 whole entry): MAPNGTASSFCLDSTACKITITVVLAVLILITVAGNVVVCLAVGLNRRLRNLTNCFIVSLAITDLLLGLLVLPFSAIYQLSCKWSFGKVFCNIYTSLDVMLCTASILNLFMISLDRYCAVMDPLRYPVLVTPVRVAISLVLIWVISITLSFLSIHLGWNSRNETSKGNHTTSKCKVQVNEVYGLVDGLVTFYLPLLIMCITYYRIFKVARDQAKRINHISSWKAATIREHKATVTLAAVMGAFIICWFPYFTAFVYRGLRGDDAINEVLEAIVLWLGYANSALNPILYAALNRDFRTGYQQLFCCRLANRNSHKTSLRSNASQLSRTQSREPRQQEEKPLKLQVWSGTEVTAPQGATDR

[6] = target: Histamine H4 receptor (Homo sapiens) (UniProt Q9H3N8); assay: Agonist activity at H4R (unknown origin) expressed in HEK293 cells harboring glosensor-22F cAMP plasmid DNA assessed as inhibition of forskolin-stimulated cAMP accumulation at 10 uM preincubated with cells followed by forskolin addition measured after 10 mins by luminescence assay; assay type: functional, cell-based
[7] = target: Luciferin 4-monooxygenase (Photinus pyralis) (UniProt P08659); assay: Inhibition of firefly luciferase activity expressed in HEK293 cells assessed as reduction in forskolin-stimulated cAMP accumulation up to 10 uM preincubated with cells followed by forskolin addition measured after 10 mins by luminescence assay; assay type: cell-based
Sequence of Luciferin 4-monooxygenase (Photinus pyralis) (P08659 whole entry): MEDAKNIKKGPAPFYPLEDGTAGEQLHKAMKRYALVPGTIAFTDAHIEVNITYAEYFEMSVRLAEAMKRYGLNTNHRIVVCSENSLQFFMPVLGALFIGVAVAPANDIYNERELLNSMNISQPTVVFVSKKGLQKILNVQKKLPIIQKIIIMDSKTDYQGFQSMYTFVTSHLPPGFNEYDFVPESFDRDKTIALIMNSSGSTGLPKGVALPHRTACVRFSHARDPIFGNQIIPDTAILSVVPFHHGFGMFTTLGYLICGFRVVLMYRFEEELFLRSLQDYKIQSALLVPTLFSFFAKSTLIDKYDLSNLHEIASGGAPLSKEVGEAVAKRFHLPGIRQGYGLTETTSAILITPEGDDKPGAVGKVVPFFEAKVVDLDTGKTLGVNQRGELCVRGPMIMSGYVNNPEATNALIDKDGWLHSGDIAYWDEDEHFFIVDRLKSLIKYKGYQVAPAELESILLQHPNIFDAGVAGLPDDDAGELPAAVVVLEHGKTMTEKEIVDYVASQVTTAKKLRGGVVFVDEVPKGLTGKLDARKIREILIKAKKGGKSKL

HEK-293T = assay: Cytotoxicity against HEK293T cells assessed as reduction in cell viability at 1 to 10 uM after 24 hrs by XTT assay; assay type: cell-based; conditions: human
[8] = target: Histamine H1 receptor (Homo sapiens) (UniProt P35367); assay: Antagonist activity at H1R (unknown origin) expressed in HEK293 cells harboring luc2P/NFAT-RE plasmid at 10 uM after 6 to 8 hrs by luciferase reporter gene assay; assay type: functional, cell-based
[9] = target: Histamine H2 receptor (Homo sapiens) (UniProt P25021); assay: Antagonist activity at H2R (unknown origin) expressed in HEK293 cells harboring glosensor-22F cAMP plasmid DNA assessed as effect on forskolin-stimulated cAMP accumulation at 10 uM preincubated with cells followed by forskolin addition measured after 10 mins by luminescence assay; assay type: functional, cell-based
[10] = target: Histamine H4 receptor (Homo sapiens) (UniProt Q9H3N8); assay: Antagonist activity at H4R (unknown origin) expressed in HEK293 cells harboring glosensor-22F cAMP plasmid DNA assessed as effect on forskolin-stimulated cAMP accumulation at 10 uM preincubated with cells followed by forskolin addition measured after 10 mins by luminescence assay; assay type: functional, cell-based
[11] = target: T2, 5-hydroxytryptamine receptor 2C (Homo sapiens); assay: Antagonist activity at human 5-HT2C expressed in HEK293 cells harboring luc2P/NFAT-RE plasmid at 10 uM after 6 to 8 hrs by luciferase reporter gene assay; assay type: functional, cell-based
Histamine H3 receptor [12] = target: T1, Histamine H3 receptor; assay: Agonist activity at human H3R expressed in HEK293 cells harboring glosensor-22F cAMP plasmid DNA assessed as inhibition of forskolin-stimulated cAMP accumulation at 10 uM preincubated with cells followed by forskolin addition measured after 10 mins by luminescence assay relative to control; assay type: functional, cell-based

pEC50 (Histamine H3 receptor [1]) | inhibition (Histamine H3 receptor [2]) | Activity [3] | Activity [4] | inhibition [5] | inhibition [6] | inhibition [7] | inhibition [8] | inhibition [9] | inhibition [10] | inhibition [11] | EC50 (Histamine H3 receptor [1]) [nM] | inhibition (Histamine H3 receptor [12]) | SMILES | Activity (HEK-293T)
8.42 | inactive | inactive | inactive | inactive | inactive | inactive | inactive | inactive | inactive | inactive | – | – | COc1ccc(NC2(c3cc(F)cc(F)c3)C(=O)N(C3CCCCC3)C(=O)/C2=C/c2ccccc2)cc1 (centres undefined) | Non-Toxic
8.96 | inactive | inactive | inactive | inactive | inactive | inactive | inactive | inactive | inactive | inactive | – | – | COc1cc(N2C(=O)C(=Cc3ccccc3)C2(C(=O)NC(C)(C)C)c2ccc(Cl)c(F)c2)cc(OC)c1OC (centres undefined) | Non-Toxic
10.00 | inactive | inactive | inactive | inactive | inactive | inactive | inactive | inactive | inactive | inactive | – | – | COc1ccc(N2C(=O)C(=Cc3ccccc3)C2(C(=O)NC2CCCCC2)c2cc(F)c(F)c(F)c2)cc1 (centres undefined) | Non-Toxic
8.17 | inactive | inactive | inactive | inactive | inactive | inactive | inactive | inactive | inactive | inactive | – | – | COC1=CC2(C=C(OC)C1=O)C(c1ccccc1)=C(c1ccc(C(F)(F)F)cc1)C(=O)N2C(C(=O)NC1CCCCC1)c1ccc(OC)c(OC)c1OC (centres undefined) | Non-Toxic
7.62 | inactive | inactive | inactive | inactive | inactive | inactive | inactive | inactive | inactive | inactive | 25.7 | – | COc1ccc(N2C(=O)/C(=C\c3ccccc3)C2(C(=O)NC(C)(C)C)c2ccc(Br)cc2)cc1OC (centres undefined) | Non-Toxic
7.84 | inactive | inactive | inactive | inactive | inactive | inactive | inactive | inactive | inactive | inactive | – | – | COc1ccc(C2=C(c3ccccc3)C3(C=CC(=O)C=C3)N(C(C(=O)NC3CCCCC3)c3cc4c(cc3Br)OCO4)C2=O)cc1 (centres undefined) | Non-Toxic
10.00 | inactive | inactive | inactive | inactive | inactive | inactive | inactive | inactive | inactive | inactive | – | – | COc1cc(N2C(=O)C(=Cc3ccccc3)C2(C(=O)NC(C)(C)C)c2ccccc2)cc(OC)c1OC (centres undefined) | Non-Toxic
10.10 | – | – | – | – | – | – | – | – | – | – | – | – | N=C(N)SCCc1cnc[nH]1 | –
6.73 | inactive | inactive | inactive | inactive | inactive | inactive | inactive | inactive | inactive | inactive | – | – | COc1cc(NC2(c3ccccc3Cl)C(=O)N(C(C)(C)C)C(=O)/C2=C/c2ccccc2)cc(OC)c1OC (centres undefined) | Non-Toxic
8.89 | inactive | inactive | inactive | inactive | inactive | inactive | inactive | inactive | inactive | inactive | 1.23 | – | COc1ccc(NC2(c3ccc(F)cc3)C(=O)N(C(C)(C)C)C(=O)/C2=C/c2ccccc2)cc1 (centres undefined) | Non-Toxic
8.89 | inactive | inactive | inactive | inactive | inactive | inactive | inactive | inactive | inactive | inactive | – | – | COc1ccc(NC2(c3ccc(Br)cc3)C(=O)N(C(C)(C)C)C(=O)/C2=C/c2ccccc2)cc1OC (centres undefined) | Non-Toxic
8.24 | inactive | inactive | inactive | inactive | inactive | inactive | inactive | inactive | inactive | inactive | – | – | COc1cc(NC2(c3ccc(Br)cc3)C(=O)N(C(C)(C)C)C(=O)/C2=C/c2ccccc2)cc(OC)c1OC (centres undefined) | Non-Toxic
– | – | inactive | – | – | – | – | – | – | – | – | – | inactive | COc1ccc(NC2(c3ccc(Br)cc3)C(=O)N(C3CCCCC3)C(=O)/C2=C/c2ccccc2)cc1OC (centres undefined) | –
– | – | inactive | – | – | – | – | – | – | – | – | – | inactive | Cc1ccc([C@@H]2C(=O)N[C@@H]3CC(=O)C=C[C@@]34C(c3ccccc3)=CC(=O)N24)cc1 | –
– | – | inactive | – | – | – | – | – | – | – | – | – | inactive | COc1ccc(C(C(=O)NC2CCCCC2)N2C(=O)C(I)=C(c3ccccc3)C23C=CC(=O)C=C3)cc1 (centres undefined) | –
8.00 | inactive | inactive | inactive | inactive | inactive | inactive | inactive | inactive | inactive | inactive | – | – | O=C1C=C[C@]23C(c4ccccc4)=CC(=O)N2[C@H](c2cc(F)cc(F)c2)C(=O)N[C@@H]3C1 | Non-Toxic
– | – | inactive | – | – | – | – | – | – | – | – | – | inactive | Cc1cc(C)cc([C@@H]2C(=O)N[C@@H]3CC(=O)C=C[C@@]34C(c3ccccc3)=CC(=O)N24)c1 | –
– | – | inactive | – | – | – | – | – | – | – | – | – | inactive | O=C1C=C[C@]23C(c4ccccc4)=CC(=O)N2[C@H](c2ccccc2)C(=O)N[C@@H]3C1 | –
– | – | inactive | – | – | – | – | – | – | – | – | – | inactive | O=C1C=C[C@]23C(c4ccccc4)=CC(=O)N2[C@H](c2cccc([N+](=O)[O-])c2)C(=O)N[C@@H]3C1 | –
